The subject of the data set is CCRIS mutagenicity, Ames/micronucleus/aberration tests. Briefly: CCRIS mutagenicity studies.
The mark [1] stands for this setting: Test System: AMES SALMONELLA TYPHIMURIUM, Strain/Indicator: TA98, Metabolic Activation: NONE, Method: STANDARD PLATE.
The mark [2] stands for this setting: Test System: AMES SALMONELLA TYPHIMURIUM, Strain/Indicator: TA100, Metabolic Activation: NONE, Method: STANDARD PLATE.

Active and inactive are the calls of the source. No rule for the calls is given here.

In the case of `CN(C)c1ccc(Cc2ccc(N(C)C)cc2)cc1`, the mutagenic call runs as follows: (Test System: AMES SALMONELLA TYPHIMURIUM, Strain/Indicator: TA98, Metabolic Activation: HAMSTER, LIVER, S-9, AROCLOR 1254, Method: STANDARD PLATE) “inactive; negative”; (Test System: AMES SALMONELLA TYPHIMURIUM, Strain/Indicator: TA98, Metabolic Activation: HAMSTER, LIVER, S-9, Method: STANDARD PLATE) “inactive; negative”; (Test System: AMES SALMONELLA TYPHIMURIUM, Strain/Indicator: TA98, Metabolic Activation: MOUSE, LIVER, S-9, Method: STANDARD PLATE) “inactive; negative”; under setting [1], “inactive; negative”; (Test System: AMES SALMONELLA TYPHIMURIUM, Strain/Indicator: TA98, Metabolic Activation: RAT, LIVER, S-9, AROCLOR 1254, Method: STANDARD PLATE) “inactive; negative”; (Test System: AMES SALMONELLA TYPHIMURIUM, Strain/Indicator: TA98, Metabolic Activation: RAT, LIVER, S-9, Method: STANDARD PLATE) “inactive; negative”. Further, the mutagenic call (Test System: AMES SALMONELLA TYPHIMURIUM, Strain/Indicator: TA100, Metabolic Activation: HAMSTER, LIVER, S-9, AROCLOR 1254, Method: STANDARD PLATE) is “inactive; negative”; the mutagenic call (Test System: AMES SALMONELLA TYPHIMURIUM, Strain/Indicator: TA100, Metabolic Activation: HAMSTER, LIVER, S-9, Method: STANDARD PLATE) is “inactive; negative”; the mutagenic call (Test System: AMES SALMONELLA TYPHIMURIUM, Strain/Indicator: TA100, Metabolic Activation: MOUSE, LIVER, S-9, Method: STANDARD PLATE) was “inactive; negative”; the mutagenic call under setting [2] was “inactive; negative”; the mutagenic call (Test System: AMES SALMONELLA TYPHIMURIUM, Strain/Indicator: TA100, Metabolic Activation: RAT, LIVER, S-9, AROCLOR 1254, Method: STANDARD PLATE) is “inactive; negative”; the mutagenic call (Test System: AMES SALMONELLA TYPHIMURIUM, Strain/Indicator: TA100, Metabolic Activation: RAT, LIVER, S-9, Method: STANDARD PLATE) was “inactive; negative”. Further, the mutagenic call is “inactive; negative” (Test System: AMES SALMONELLA TYPHIMURIUM, Strain/Indicator: TA1535, Metabolic Activation: HAMSTER, LIVER, S-9, AROCLOR 1254, Method: STANDARD PLATE); “inactive; negative” (Test System: AMES SALMONELLA TYPHIMURIUM, Strain/Indicator: TA1535, Metabolic Activation: HAMSTER, LIVER, S-9, Method: STANDARD PLATE); “inactive; negative” (Test System: AMES SALMONELLA TYPHIMURIUM, Strain/Indicator: TA1535, Metabolic Activation: MOUSE, LIVER, S-9, AROCLOR 1254, Method: STANDARD PLATE); “inactive; negative” (Test System: AMES SALMONELLA TYPHIMURIUM, Strain/Indicator: TA1535, Metabolic Activation: MOUSE, LIVER, S-9, Method: STANDARD PLATE); “inactive; negative” (Test System: AMES SALMONELLA TYPHIMURIUM, Strain/Indicator: TA1535, Metabolic Activation: NONE, Method: STANDARD PLATE); “inactive; negative” (Test System: AMES SALMONELLA TYPHIMURIUM, Strain/Indicator: TA1535, Metabolic Activation: RAT, LIVER, S-9, AROCLOR 1254, Method: STANDARD PLATE). In addition, the mutagenic call reads like this: (Test System: AMES SALMONELLA TYPHIMURIUM, Strain/Indicator: TA1535, Metabolic Activation: RAT, LIVER, S-9, Method: STANDARD PLATE) “inactive; negative”; (Test System: AMES SALMONELLA TYPHIMURIUM, Strain/Indicator: TA1537, Metabolic Activation: HAMSTER, LIVER, S-9, AROCLOR 1254, Method: STANDARD PLATE) “inactive; negative”; (Test System: AMES SALMONELLA TYPHIMURIUM, Strain/Indicator: TA1537, Metabolic Activation: HAMSTER, LIVER, S-9, Method: STANDARD PLATE) “inactive; negative”; (Test System: AMES SALMONELLA TYPHIMURIUM, Strain/Indicator: TA1537, Metabolic Activation: MOUSE, LIVER, S-9, AROCLOR 1254, Method: STANDARD PLATE) “inactive; negative”; (Test System: AMES SALMONELLA TYPHIMURIUM, Strain/Indicator: TA1537, Metabolic Activation: MOUSE, LIVER, S-9, Method: STANDARD PLATE) “inactive; negative”; (Test System: AMES SALMONELLA TYPHIMURIUM, Strain/Indicator: TA1537, Metabolic Activation: NONE, Method: STANDARD PLATE) “inactive; negative”. The mutagenic call is, setting by setting: (Test System: AMES SALMONELLA TYPHIMURIUM, Strain/Indicator: TA1537, Metabolic Activation: RAT, LIVER, S-9, AROCLOR 1254, Method: STANDARD PLATE) “inactive; negative”; (Test System: AMES SALMONELLA TYPHIMURIUM, Strain/Indicator: TA1537, Metabolic Activation: RAT, LIVER, S-9, Method: STANDARD PLATE) “inactive; negative”; (Test System: AMES SALMONELLA TYPHIMURIUM, Strain/Indicator: TA1538, Metabolic Activation: HAMSTER, LIVER, S-9, Method: STANDARD PLATE) “inactive; negative”; (Test System: AMES SALMONELLA TYPHIMURIUM, Strain/Indicator: TA1538, Metabolic Activation: MOUSE, LIVER, S-9, AROCLOR 1254, Method: STANDARD PLATE) “inactive; negative”; (Test System: AMES SALMONELLA TYPHIMURIUM, Strain/Indicator: TA1538, Metabolic Activation: MOUSE, LIVER, S-9, Method: STANDARD PLATE) “inactive; negative”; (Test System: AMES SALMONELLA TYPHIMURIUM, Strain/Indicator: TA1538, Metabolic Activation: NONE, Method: STANDARD PLATE) “inactive; negative”. Also, the mutagenic call by setting is: (Test System: AMES SALMONELLA TYPHIMURIUM, Strain/Indicator: TA1538, Metabolic Activation: RAT, LIVER, S-9, AROCLOR 1254, Method: STANDARD PLATE) “inactive; negative”; (Test System: AMES SALMONELLA TYPHIMURIUM, Strain/Indicator: TA1538, Metabolic Activation: RAT, LIVER, S-9, Method: STANDARD PLATE) “inactive; negative”; (Test System: E. COLI, Strain/Indicator: WP2 UVRA, Metabolic Activation: HAMSTER, LIVER, S-9, AROCLOR 1254, Method: STANDARD PLATE) “inactive; negative”; (Test System: E. COLI, Strain/Indicator: WP2 UVRA, Metabolic Activation: HAMSTER, LIVER, S-9, Method: STANDARD PLATE) “inactive; negative”; (Test System: E. COLI, Strain/Indicator: WP2 UVRA, Metabolic Activation: MOUSE, LIVER, S-9, AROCLOR 1254, Method: STANDARD PLATE) “inactive; negative”; (Test System: E. COLI, Strain/Indicator: WP2 UVRA, Metabolic Activation: MOUSE, LIVER, S-9, Method: STANDARD PLATE) “inactive; negative”. In addition, the mutagenic call by setting is: (Test System: E. COLI, Strain/Indicator: WP2 UVRA, Metabolic Activation: NONE, Method: STANDARD PLATE) “inactive; negative”; (Test System: E. COLI, Strain/Indicator: WP2 UVRA, Metabolic Activation: RAT, LIVER, S-9, AROCLOR 1254, Method: STANDARD PLATE) “inactive; negative”; (Test System: E. COLI, Strain/Indicator: WP2 UVRA, Metabolic Activation: RAT, LIVER, S-9, Method: STANDARD PLATE) “inactive; negative”; (Test System: MOUSE LYMPHOMA, Strain/Indicator: L5178Y (TK+/TK-), Metabolic Activation: RAT, LIVER, S-9, AROCLOR 1254, Method: SUSPENSION/PLATE) “active; positive”.
As for `C=C1C(=O)[C@]23CCC4[C@](C)(CCC[C@@]4(C)C(=O)O)C2CC[C@@]1(O)C3` (some centres not stated), the mutagenic call (Test System: AMES SALMONELLA TYPHIMURIUM, Strain/Indicator: TM677, Metabolic Activation: NONE, Method: PREINCUBATION) is “active; positive”.
Regarding `CCn1cc(C(=O)O)c(=O)c2cc(F)c(N3CCNC(C)C3)c(F)c21` (configuration not stated), the mutagenic call under setting [1] was “inactive; negative”; the mutagenic call (Test System: AMES SALMONELLA TYPHIMURIUM, Strain/Indicator: TA98, Metabolic Activation: RAT, LIVER, S-9, PHENOBARBITAL, Method: STANDARD PLATE) is “inactive; negative”; the mutagenic call under setting [2] is “inactive; negative”; the mutagenic call (Test System: AMES SALMONELLA TYPHIMURIUM, Strain/Indicator: TA100, Metabolic Activation: RAT, LIVER, S-9, PHENOBARBITAL, Method: STANDARD PLATE) is “inactive; negative”; the mutagenic call (Test System: AMES SALMONELLA TYPHIMURIUM, Strain/Indicator: TA102, Metabolic Activation: NONE, Method: STANDARD PLATE) is “active; positive”; the mutagenic call (Test System: CHINESE HAMSTER V-79, Strain/Indicator: V-79 (HGPRT)/6-THIOGUANINE, Metabolic Activation: NONE, Method: STANDARD PLATE) was “inactive; negative”.
Consider `COC(=O)/C=C/c1ccc([N+](=O)[O-])o1`, for which, under “Test System: AMES SALMONELLA TYPHIMURIUM, Strain/Indicator: TA98, Metabolic Activation: NONE, Method: PREINCUBATION”, the mutagenic call was “active; positive”.
Consider `Cc1c(/C=N/OCc2ccc(Cl)cc2)c2cc([N+](=O)[O-])ccc2n1Cc1ccccc1`, for which the mutagenic call runs as follows: under setting [1], “inactive; negative”; (Test System: AMES SALMONELLA TYPHIMURIUM, Strain/Indicator: TA98, Metabolic Activation: RAT, LIVER, S-9, PHENOBARBITAL AND BETA-NAPHTHOFLAVONE, Method: STANDARD PLATE) “inactive; negative”; under setting [2], “inactive; negative”; (Test System: AMES SALMONELLA TYPHIMURIUM, Strain/Indicator: TA100, Metabolic Activation: RAT, LIVER, S-9, PHENOBARBITAL AND BETA-NAPHTHOFLAVONE, Method: STANDARD PLATE) “inactive; negative”.

Source of the values: PubChem BioAssay AID1259407 (Chemical Carcinogenesis Research Information System (CCRIS), 2018).
